Where “and” joins values, the source holds several entries; their conditions need not be identical. Identical values can stand only once.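 96-well plates; 48 h exposure; 5 concentrations. Endpoints by linear interpolation between flanking doses. Not reached: highest tested concentration assigned. GI50 marks 50% less growth. At the TGI there is no net growth.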
Columns and labels:
Assay in all cases: NCI anticancer screen, dose series, 48 h
NCI/ADR-RES ovarian = test system: NCI/ADR-RES ovarian
BT-549 breast = test system: BT-549 breast
MDA-MB-231 breast = test system: MDA-MB-231 breast
MDA-MB-435 = test system: MDA-MB-435
HS 578T breast = test system: HS 578T breast
DMS 273 small cell lung = test system: DMS 273 small cell lung
RXF-631 renal = test system: RXF-631 renal
HOP-18 NSCLC = test system: HOP-18 NSCLC
MDA-N = test system: MDA-N

SMILES | GI50 (NCI/ADR-RES ovarian) | TGI (NCI/ADR-RES ovarian) | GI50 (BT-549 breast) | TGI (BT-549 breast) | GI50 (MDA-MB-231 breast) [µM] | TGI (MDA-MB-231 breast) | GI50 (MDA-MB-435) [µM] | TGI (MDA-MB-435) [µM] | GI50 (HS 578T breast) [µM] | TGI (HS 578T breast) [µM] | TGI (DMS 273 small cell lung) [µM] | TGI (RXF-631 renal) [µM] | TGI (HOP-18 NSCLC) [µM] | TGI (MDA-N) [µM] | GI50 (DMS 273 small cell lung) [µM] | GI50 (HOP-18 NSCLC) [µM]
CC(C)(C)OC(=O)NCCNC1=CC(=O)c2nc3ccccc3c3ccnc1c23 | 23.3 µM | 74.5 µM | 20.5 µM | 51.7 µM | 18.4 | 58.6 µM | 15.7 | 37.7 | 25.5 | 73.8 |  |  |  |  |  | 
CN(C)CCCOc1ccccc1NC1=C(Cl)C(=O)C(Nc2ccccc2OCCCN(C)C)=C(Cl)C1=O | 3.29 µM | 12.7 µM | 1.62 µM | 2.99 µM | 0.511 | 1.4 µM | 0.636 | 1.44 | 1.83 | 5.46 |  |  |  |  |  | 
C(=Nc1ccccc1)C1CCCC[N-]1.C(=Nc1ccccc1)C1CCCC[N-]1.[Cu+2].[O-][Cl+3]([O-])([O-])O (configuration not stated) | 8.33 µM | 29.7 µM | 18.5 µM | 55.8 µM | 9.75 | 28.1 µM | 1.57 | 4.31 | 30.3 | > 89.5 |  |  |  |  |  | 
CCC1(C)NN=c2s/c(=C/c3ccc(OC)cc3)c(=O)n2N1 (configuration not stated) |  |  |  |  |  |  |  |  |  |  | > 100 |  |  |  |  | 
FC(F)(F)C1(Cl)C(c2ccccc2)=C1c1ccccc1 |  |  |  |  |  |  |  |  |  |  | 27.6 | 29.2 | 35.6 |  |  | 
NNC(=S)N/N=C(\CCCC(=O)NCCc1ccccc1)CC(=O)c1ccccc1 |  |  |  |  |  |  |  |  |  |  |  |  | > 100 |  |  | 
Cc1ccc(C(=O)N(CCCN)[C@@H](c2nc3cc(Cl)ccc3c(=O)n2Cc2ccccc2)C(C)C)cc1 | 0.0481 µM and 0.0406 µM | 0.307 µM and 0.481 µM | 0.043 µM and 0.0103 µM | 2.94 µM and 1.67 µM | < 0.01 | 0.233 µM and 0.172 µM | < 0.01 | < 0.01 | < 0.01 |  |  |  |  |  |  | 
CN(C)c1ccc2c(c1)C(=O)N(OS(=O)(=O)c1ccc([N+](=O)[O-])cc1)C2=O |  |  |  |  |  |  |  |  |  |  | 43.9 | 47.1 | > 100 |  |  | 
COc1cccc(C2CC(c3cc(OC)c(OC)c(OC)c3)=NN2)c1 (configuration not stated) | 4.55 µM | 27.4 µM | 3.35 µM | 19.1 µM | 26.2 | > 100 µM | 2.79 | 9.39 | 15.5 | 49.4 |  |  |  |  |  | 
O=C(O)CN(c1ccccc1)S(=O)(=O)c1ccc(NC(=O)c2ccccc2)cc1 |  |  |  |  |  |  |  |  |  |  | > 100 |  | > 100 |  |  | 
COC1=CC(c2ccc[nH]2)=N/C1=C\c1[nH]c(C)c(C(=O)OCc2ccccc2)c1C | 0.0714 µM | 1.36 µM | 0.253 µM | 3.46 µM | 0.0379 | 0.325 µM | 0.0557 | 1.31 | 0.0804 | 0.662 |  |  |  |  |  | 
CCCN(CCC)CCCNCc1cc(I)cc(C)c1O | 15.4 µM | 29.8 µM | 12.3 µM | 24.8 µM | 14.5 | 28.5 µM | 12 | 24.8 | 11.1 | 24.6 |  |  |  |  |  | 
COc1ccc2c(c1)C(=O)c1c-2n(CCCN)c(=O)c2ccccc12 | 0.0992 µM | 1.95 µM | 0.82 µM | 2.63 µM | 0.0704 | 0.24 µM | 0.146 | 1.61 | 0.649 | 3.09 |  |  |  |  |  | 
CO[C@H](C(=O)[C@@H](O)[C@@H](C)O)[C@@H]1Cc2cc3cc(O[C@H]4C[C@@H](O[C@H]5C[C@@H](O)[C@H](O)C(C)O5)[C@H](O)C(C)O4)c(C)c(O)c3c(O)c2C(=O)[C@H]1O[C@H]1C[C@@H](O[C@H]2C[C@@H](O[C@H]3C[C@@H](OC)[C@H](O)C(C)O3)[C@@H](O)C(C)O2)C(O)(O)C(C)O1 (some centres not stated) | > 25 µM | > 25 µM | 0.107 µM | 1.64 µM | 0.794 | 24.5 µM | 0.171 | 3.53 | 0.118 | > 7.66 |  |  |  |  |  | 
COc1cc(CCc2cccnc2)cc(OC)c1OC |  |  |  |  |  |  |  |  |  |  | > 100 |  | > 100 |  |  | 
C[n+]1c(/C=C\C=C\N2CCCCC2)sc2ccccc21 | 37.6 µM | > 100 µM | 0.261 µM | 3.5 µM | 1.01 | 25.6 µM | 0.266 | 1.96 | 1.11 | 22.5 |  |  |  |  |  | 
COc1ccc(/C=C2\CN(C)Cc3c2nc(N)nc3-c2ccc(OC)cc2)cc1 |  |  |  |  |  |  |  |  |  |  | > 100 |  |  |  |  | 
CN1C(=O)c2c(ccc3c2OCO3)C2C(O)Cc3cc4c(cc3C21)OCO4 (configuration not stated) |  | 8.28 µM |  | > 100 µM |  | 18.3 µM |  |  |  | > 100 |  |  |  | 5.56 |  | 
CCOc1ccc(NC(=O)CC2SC(=Nc3ccc(Cl)cc3)NC2=O)cc1 (configuration not stated) |  |  |  |  |  |  |  |  |  |  | > 100 | > 100 | > 100 |  |  | 
Cc1ccc(S(=O)(=O)N/N=C/c2oc(-c3cccc([N+](=O)[O-])c3)c(-c3cccc([N+](=O)[O-])c3)c2[N+](=O)[O-])cc1 |  |  |  |  |  |  |  |  |  |  |  | > 100 | > 100 |  |  | 
Cc1ccccc1NC(=S)Nc1ccccn1 | > 100 µM | > 100 µM | > 100 µM | > 100 µM | 89.7 | > 100 µM | > 100 | > 100 | > 100 | > 100 |  |  |  |  |  | 
COc1cc2c(cc1O)C=NCC2 |  |  |  |  |  |  |  |  |  |  | > 100 |  |  |  |  | 
CCC[CH2][Sn]([CH2]CCC)([O]C(=O)c1c(F)cccc1F)[O]C(=O)c1c(F)cccc1F |  |  |  |  |  |  |  |  |  |  | 2.27 |  | 3.3 |  | 1.07 | 1.89
c1ccc(SC2(Sc3ccccc3)CCCC2)cc1 |  |  |  |  |  |  |  |  |  |  | > 100 | > 100 |  |  |  | 
O=P([O-])(O)OP(=O)([O-])O.[NH-][C@H]1CCCC[C@@H]1[NH-].[OH-].[OH-].[Pt+4] | 22.7 µM | 78.1 µM | 24.3 µM | 47.9 µM | 25 | 57.2 µM | 31.2 | > 100 | 36.1 | 93.1 |  |  |  |  |  | 
CCN(CC)CCNC(=O)c1ccccc1NC(=O)C(=O)Nc1ccccc1C(=O)NCCN(CC)CC |  |  |  |  |  |  |  |  |  |  | > 100 | > 100 | > 100 |  |  | 
